Results reported in PMC6085657, “DNA display of fragment pairs as a tool for the discovery of novel biologically active small molecules” (Chemical Science, 2014).
“And” between values parts separate entries of the source, which are not always exact repeats. Identical values can stand only once. “Also recorded” adds a separate entry of the source. Like-named read-outs stand apart in the source and are kept apart here.

Tests used:
[1] = molecular target: T1, Hsp70 (Homo sapiens, UniProt P0DMV8); set-up: method as in PMID 16806043; details: read-out: affinity of Hsp70 for ligand; cited from earlier work
[2] = molecular target: T2, Hsp70/Hsp40 (Homo sapiens, UniProt P0DMV8); assay: Malachite Green Hsp70 ATPase assay; format: biochemical; details: for inhibition at 1 µM: 1 molar equivalent to Hsp70 (1 μM), read-out: ATPase inhibition in dose response; for ATPase inhibition: 200 molar equivalence of inhibitor (200 μM), Hsp70/Hsp40 1 μM, ATP 1 mM
T2 construct: purchased Novus Biologicals NBC1-18367

[3] = molecular target: T1, Hsp70; assay: Fluorescence polarization displacement assay with 1-FITC; format: binding; details: 1-FITC 25 nM, Hsp70 100 nM; R2 = 0.998; read-out: Affinity for Hsp70 by fluorescence polarization displacement (IC50)
[4] = molecular target: T3, Heat shock 70 kDa protein 1A/1B (Homo sapiens, UniProt P0DMV8); assay: Proteomic (MS-MS) analysis of pull-down from HEK crude cell lysate; format: binding; details: Hsp71_HUMAN in pull-down from HEK crude cell lysate
T3 construct: endogenous in cells; host or cells: HEK293-T

[5] = molecular target: T4, carbonic anhydrase (Homo sapiens, UniProt P00918); assay: Pull-down from crude HEK cell lysates, Western blot for carbonic anhydrase (negative control); format: binding; details: HEK lysate, negative control protein
T4 construct: endogenous in cells; host or cells: HEK293-T

[6] = molecular target: T5, Hsp70-GST (Homo sapiens, UniProt P0DMV8); assay: Microarray-based screen of the focused library against Hsp70-GST (fluorescence, anti-GST DyLight 649); format: binding; details: fluorescence intensity on the microarray, mean of four spots, SD between 5% and 10%; PNA-tagged library member
T5 construct: purchased Signal Chem H34-54G
Excerpt: A microarray pairing 125 biologically validated fragments[11] (FDA-approved drugs, bioactive natural products or fragments thereof) with a library of 500 heterocycles was used as a preliminary screen.[6] The microarray contained 62 500 unique DNA sequences that combinatorially paired both fragment libraries. […] The result from this screen with Hsp70 is shown in Fig. 2, arranged with fragments from the 125-fragment set and 500-fragment set on horizontal and vertical lines, respectively. The recurrence of binding across a line reflects the fitness of a given fragment. Thus, line intensities were used to rank the different fragments. What is interesting is that lines across the library of the 500-fragment set (4B, 24B, 44B, 84B, 124B, …) shared a common structural motif (biaryl-ether; Fig. 2). […] It is noteworthy that this biaryl moiety is part of a previously reported Hsp70 ligand (MAL3-101).[13],[14] […] Although screening fragments as conjugates to a nucleic acid tag restricts their binding mode to a particular orientation (the orientation that will position the linker to the tag toward the outside of the binding pocket), it greatly facilitates the synthesis of the corresponding covalent adduct combining both fragments, as the same chemistry that was used to link the fragments to the tag can be used to covalently pair them. Nonetheless, the linker length and conformational bias must be identified experimentally. We reasoned that the identified fragments could be used as the starting point for a focused library covalently pairing the fragments. This would allow for supplementing the selected fragment set with new entities (near neighbours) and enriching the local diversity space around these initial hits. Such iterative processes are highly efficient in sifting through a large diversity space. Following this strategy, we designed an Hsp70-focused library of 10 000 members using 20 fragments A × 5 different linkers with different lengths and geometrical constraints × 100 fragments B. The 100-fragment set contained 90 entities that were not present in the original screen. To be viable, an iterative library synthesis approach should be leveraged on chemistry that is compatible with SPPS and can be performed by automated PNA-encoded synthesis. As shown in Scheme 1, this was achieved through the use of three orthogonal amino group masking strategies (Mtt, Fmoc, and azide) that enabled selective chemical reactions at both sites of the linker joining the fragment and the encoding site. Thus, a resin derivatized with lysine with orthogonal protecting groups (Mtt and N3) was split into 100 pools and deprotected on one end (Mtt deprotection using HFIP), and the different linkers to join both fragments were introduced by standard peptide coupling method, affording the two sites for fragment coupling protected by Fmoc and Mtt, respectively.[15] The fragments were coupled using two different chemistries: for fragments containing a carboxylic acid, DIC/HOBt was used; for fragments with an amino group, hydroxyl, or aniline, the amino-functionalized linker was first treated with 4-nitrophenylchloroformate and the resulting carbamate coupled with the fragment. The azide was next reduced and the first 100 pools were encoded with a 7mer Boc-protected PNA sequence. The resins were mixed and split to introduce the second encoding 7mer sequence followed by deprotection of Mtt and the introduction of the corresponding second fragments. The success of each fragment coupling and encoding step was verified by MALDI analysis of an analytical sample. Cleavage of the final library and hybridization afforded the spatially resolved 10 000-member Hsp70-focused library. A slide containing 4-fold redundancy of each DNA sequence randomly distributed on the array was used to have four data points for each small molecule–target interaction, thus allowing a statistical analysis of the hits. The array was screened under three different conditions: Hsp70, Hsp70 + Hsp40, and Hsp70 + ATP. […]

[7] = molecular target: T5, Hsp70-GST; assay: Protein pull-down with ligand immobilized on streptavidin magnetic beads, Hsp70; format: binding; details: recombinant Hsp70-GST 300 nM, SDS PAGE
[8] = system: Hsp90; assay: Protein pull-down with ligand immobilized on streptavidin magnetic beads, Hsp90; format: binding; details: recombinant Hsp90 300 nM, SDS PAGE
[9] = molecular target: T1, Hsp70; assay: Pull-down of Hsp70 from crude HEK cell lysates, Western blot; format: binding; details: HEK lysate, Western blot with anti-Hsp70 antibody
[10] = molecular target: T1, Hsp70; assay: SPR affinity measurement, biotinylated compounds immobilized on a streptavidin chip, Hsp70 analyte; format: binding; details: compound immobilized on streptavidin chip, values in parentheses have chi2 > 10
[11] = molecular target: Hsp90; assay: SPR affinity measurement, biotinylated compounds immobilized on a streptavidin chip, Hsp90 analyte; format: binding; details: compound immobilized on streptavidin chip, values in parentheses have chi2 > 10
[12] = molecular target: T1, Hsp70; set-up: method as in PMID 15448148; details: cited from earlier work

T1 sequence (P0DMV8 whole entry): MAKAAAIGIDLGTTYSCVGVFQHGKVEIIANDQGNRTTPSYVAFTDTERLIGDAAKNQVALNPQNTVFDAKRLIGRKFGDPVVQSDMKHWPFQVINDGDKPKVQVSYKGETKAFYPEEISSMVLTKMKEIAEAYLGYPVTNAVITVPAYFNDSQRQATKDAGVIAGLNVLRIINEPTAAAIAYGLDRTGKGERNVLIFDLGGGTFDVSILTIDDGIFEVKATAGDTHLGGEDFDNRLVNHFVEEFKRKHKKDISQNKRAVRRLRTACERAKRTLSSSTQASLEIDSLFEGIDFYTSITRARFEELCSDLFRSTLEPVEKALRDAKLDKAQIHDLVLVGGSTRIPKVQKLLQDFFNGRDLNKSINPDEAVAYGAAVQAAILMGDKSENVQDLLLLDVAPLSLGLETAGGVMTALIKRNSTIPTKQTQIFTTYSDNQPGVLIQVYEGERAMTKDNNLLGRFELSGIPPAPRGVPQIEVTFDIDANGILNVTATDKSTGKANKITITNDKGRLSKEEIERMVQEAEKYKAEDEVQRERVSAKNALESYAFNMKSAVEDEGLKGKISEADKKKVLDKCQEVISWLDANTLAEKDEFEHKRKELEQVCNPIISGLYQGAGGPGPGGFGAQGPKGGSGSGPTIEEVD
T5 sequence (P0DMV8 whole entry): as above
T2 sequence (P0DMV8 whole entry): as above
T3 sequence (P0DMV8 whole entry): as above

SMILES	FU microarray HSP70-GST [6]	Kd [10]	Kd [11]	other results
Nc1ncnc2c1ncn2[C@@H]1O[C@H](COP(=O)(O)OP(=O)(O)O)[C@@H](O)[C@H]1O [ADP]	–	–	–	Kd [1]: 260 nM
Cc1ccc(/C=C/C(=O)NCC(NC(=O)c2ccc(NC(=O)CCC(=O)c3ccc(-c4ccccc4)cc3)cc2)C(N)=O)cc1 (stereo not drawn) [Compound 1b]	–	–	–	inhibition at 1 µM [2]: > 50%; ATPase inhibition [2]: complete inhibition; IC50 [3]: 31 nM
Cc1oncc1C(=O)Nc1ccc(O)c(C(=O)NCC(NC(=O)c2ccc(NC(=O)CCC(=O)c3ccc(-c4ccccc4)cc3)cc2)C(=O)NCCCCC(NC(=O)COCCOCCNC(=O)CCCCC2SCC3NC(=O)NC32)C(N)=O)c1 (stereo not drawn) [Compound 2a]	28 653 FU	1.58 nM	–	% Protein Coverage [4]: 24.8%; retention of carbonic anhydrase from crude cell lysates [5]: no carbonic anhydrase; capture of Hsp70 on streptavidin magnetic beads [7]: retained Hsp70; capture of Hsp90 on streptavidin magnetic beads [8]: not Hsp90; retention of Hsp70 from crude cell lysates [9]: retained Hsp70; KD HSP90 [11]: no measurable affinity; also recorded: Low binding
Cc1oncc1C(=O)Nc1ccc(O)c(C(=O)NCC(NC(=O)c2ccc(NC(=O)CCC(=O)c3ccc(-c4ccccc4)cc3)cc2)C(N)=O)c1 (stereo not drawn) [Compound 2b]	–	–	–	inhibition at 1 µM [2]: > 50%; ATPase inhibition [2]: complete inhibition
CSc1nnc(CCCOC(=O)NCC(NC(=O)CC2=C(C)C(=Cc3ccc([S+](C)[O-])cc3)c3ccc(F)cc32)C(=O)NCCCCC(NC(=O)COCCOCCNC(=O)CCCCC2SCC3NC(=O)NC32)C(N)=O)n1-c1ccc(Cl)cc1Cl (stereo not drawn) [Compound 4a]	28 566 FU	2.69 nM	10.7 nM	–
NC(=O)C(CCCCNC(=O)C(CNC(=O)c1cccc(-c2cccnc2)c1)NC(=O)c1ccc(NC(=O)COCC(=O)N2CCCN(S(=O)(=O)c3cccc4cnccc34)CC2)cc1)NC(=O)COCCOCCNC(=O)CCCCC1SCC2NC(=O)NC21 (stereo not drawn) [Compound 5a]	28 447 FU	0.38 nM	5.44 nM	–
CSc1nnc(CCCOC(=O)NCCCCC(NS(=O)(=O)c2ccc(-c3ccccc3)cc2)C(=O)NCCCCC(NC(=O)COCCOCCNC(=O)CCCCC2SCC3NC(=O)NC32)C(N)=O)n1-c1ccc(Cl)cc1Cl (stereo not drawn) [Compound 6a]	28 958 FU	2.33 nM	18.7 nM	–
NC(=O)C(CCCCNC(=O)C(CCCCNC(=O)c1ccc2[nH]nc(Br)c2c1)NS(=O)(=O)c1ccc(-c2ccccc2)cc1)NC(=O)COCCOCCNC(=O)CCCCC1SCC2NC(=O)NC21 (stereo not drawn) [Compound 7a]	24 143 FU	1.34 nM	3.17 nM	–
COc1ccc(C=CC(=O)NCC(NC(=O)c2cccc(NC(=O)CCC(=O)c3ccc(-c4ccccc4)cc3)c2)C(=O)NCCCCC(NC(=O)COCCOCCNC(=O)CCCCC2SCC3NC(=O)NC32)C(N)=O)cc1OC (stereo not drawn) [Compound 8a]	27 982 FU	0.8 nM	16.9 nM	–
NC(=O)C(CCCCNC(=O)C(CNC(=O)c1ccc2[nH]nc(Br)c2c1)NC(=O)c1cccc(NC(=O)CCC(=O)c2ccc(-c3ccccc3)cc2)c1)NC(=O)COCCOCCNC(=O)CCCCC1SCC2NC(=O)NC21 (stereo not drawn) [Compound 9a]	29 024 FU	0.64 nM	14.7 nM	–
COc1ccc(C=CC(=O)NCC(NC(=O)c2ccc(NC(=O)COCC(=O)NC(C)COc3c(C)cccc3C)cc2)C(=O)NCCCCC(NC(=O)COCCOCCNC(=O)CCCCC2SCC3NC(=O)NC32)C(N)=O)cc1OC (stereo not drawn) [Compound 10a]	28 961 FU	1.88 nM	2.97 nM	–
CC(C(=O)Nc1cccc(C(=O)NC(CNC(=O)c2ccc3[nH]nc(Br)c3c2)C(=O)NCCCCC(NC(=O)COCCOCCNC(=O)CCCCC2SCC3NC(=O)NC32)C(N)=O)c1)c1cccc(Oc2ccccc2)c1 (stereo not drawn) [Compound 11a]	27 941 FU	12 nM and 12.1 nM	5.6 nM	–
CSc1nnc(CCCOC(=O)NCC(NC(=O)CCC(=O)c2ccc(-c3ccccc3)cc2)C(=O)NCCCCC(NC(=O)COCCOCCNC(=O)CCCCC2SCC3NC(=O)NC32)C(N)=O)n1-c1ccc(Cl)cc1Cl (stereo not drawn) [Compound 12a]	28 174 FU	2.02 nM	10.1 nM	–
CCC(COC(=O)NCCCCC(NC(=O)CC1=C(C)C(=Cc2ccc([S+](C)[O-])cc2)c2ccc(F)cc21)C(=O)NCCCCC(NC(=O)COCCOCCNC(=O)CCCCC1SCC2NC(=O)NC21)C(N)=O)c1ccccc1 (stereo not drawn) [Compound 13a]	27 215 FU	1.16 nM	29.5 nM	–
COc1ccc(C=CC(=O)NCC(NC(=O)c2cccc(NS(=O)(=O)c3ccc(-c4ccccc4)cc3)c2)C(=O)NCCCCC(NC(=O)COCCOCCNC(=O)CCCCC2SCC3NC(=O)NC32)C(N)=O)cc1OC (stereo not drawn) [Compound 14a]	28 588 FU	2.88 nM	52.8 nM	–
Cc1ccc(C(=O)NCC(NC(=O)c2cccc(NS(=O)(=O)c3ccc(Oc4ccccc4)cc3)c2)C(=O)NCCCCC(NC(=O)COCCOCCNC(=O)CCCCC2SCC3NC(=O)NC32)C(N)=O)cc1[N+](=O)[O-] (stereo not drawn) [Compound 15a]	28 732 FU	1.3 nM	35.3 nM	–
CCCCCCN(C(=O)CCCCCN1C(=O)NC(c2ccc(-c3ccccc3)cc2)C(C(=O)OCc2ccccc2)=C1C)C(C(=O)NCCCC)c1ccc(OCC(=O)OC)c(C(=O)OC)c1 (stereo not drawn) [MAL3-101]	–	–	–	effect on Hsp70 ATPase activity [12]: stimulate this activity
